Assay results: patent US20160206688A1, “METHODS FOR TREATING BACTEREMIA AND OSTEOMYELITIS USING ORITAVANCIN” (THE MEDICINES COMPANY, priority 2013, published 2016)
Values after ≈ are worked out from the molar mass of the structure shown. Where two headings read alike, the source gives them in different places.

Assays:
[1] = Oritavancin concentrations (PK samples) in compassionate use subject; type: in vivo, human
Experimental: (§1) In response to a compassionate use request, oritavancin was administered to a subject having bacteremia.
(§2) Treatment as of Feb. 8, 2013: oritavancin (1200 mg IV, Q2D×3 times, then QW×5 times).
PK samples have been taken.
Attending physician kept the infusion time at 4 hours.
The concentrations are consistent with expectations from modeling (modeled oritavancin concentration-time profile is attached), with oritavancin attaining peaks of about 120-130 ug/mL and troughs of around 5-10 ug/mL for the loading phase and of around 5 ug/mL for the weekly dosing phase.

[2] = system: vancomycin-resistant enterococcal bacteremia; experiment: Blood culture follow-up of compassionate use subject treated with oritavancin; type: in vivo, human
Experimental: as §1
The demographics of the subject included the following: […]; […]; […]; weight—190 lb; height—70 inches. The subject's medical history included the following: CAD s/p CABG 8/08 (SVG to OM1, SVG to PDA); severe AS s/p bioprosthetic AVR 8/08; lumbar discectomy and fusion February 2011, hardware removed Jan. 11, 2013; PVD S/p bilateral CEA 2010; CKD s/p renal artery stenting December 2011, Baseline Cr approx 3.0 s; HTN; CHF; HLD; mild pulmonary fibrosis; BPH; GERD; arthritis.
The subject was diagnosed with: 1) vancomycin-resistant enterococcal bacteremia with intolerance of other antibiotics; and 2) possible spinal osteomyelitis.
as §2
Last blood culture was Feb. 4, 2013 (negative). Attending physician will take blood sample for culture Feb. 11, 2013 and weekly thereafter.

S. aureus = experiment: Broth microdilution MIC, European bacteraemia isolates 2010-2012; type: cell-based
Experimental: (§3) A total of 2,904 clinical strains responsible for documented bacteremia among unique hospitalized patients in 38 hospitals in 11 European Union countries. Israel, Russia, Turkey and Ukraine were included in this study (2010-2012). Isolates were submitted to a central monitoring laboratory (JMI Laboratories, North Liberty. Iowa. USA), following previously established protocols. Bacterial species identification was performed by using an automated system (Vitek®2; bioMèrieux, Hazelwood, Mo., USA) or conventional biochemical algorithms, as required.
(§4) Isolates were tested for susceptibility by broth microdilution methods following the Clinical and Laboratory Standards Institute (CLSI; M07-A9, 2012) document. Susceptibility testing was performed in cation-adjusted Mueller-Hinton broth (CA-MHB) using dry-form panels manufactured by Thermo Fisher Scientific, formerly TREK Diagnostics Systems/Sensititre (Cleveland. Ohio, USA). These panels provide results equivalent to the CLSI-approved broth microdilution method supplemented with 0.002% polysorbate-80.
(§5) Quality assurance was performed by concurrent testing of CLSI-recommended (M100-S23, 2013) strains: E. faecalis ATCC 29212 and S. aureus ATCC 29213. Interpretation of comparator MIC results was in accordance with published CLSI (M100-S23) and European Committee on Antimicrobial Susceptibility Testing (EUCAST, 2013) criteria.

[3] = system: staphylococcal clinical isolates; experiment: as above; type: cell-based, staphylococci
Experimental: as §3, §4, §5

E. faecalis = experiment: Broth microdilution MIC, US isolates 2011-2012, blood vs non-blood; type: cell-based
Experimental: (§6) 527 E. faecalis, 176 E. faecium, and 790 BHS (335 S. pyogenes and 455 S. agalactiae) clinical, single patient, non-consecutive isolates were collected in 2011-2012 from 46 sites geographically distributed across the United States. The MICs were determined by broth microdilution testing performed in accordance with CLSI M7 and M100 guidelines. From the resulting database, this analysis focused on the activities of ORI, vancomycin (VAN), daptomycin (DAP), and linezolid (LZD) according to specimen source.

E. faecium = experiment: as above; type: cell-based
Experimental: as §6

S. agalactiae = experiment: as above; type: cell-based
Experimental: as §6

S. pyogenes = experiment: as above; type: cell-based
Experimental: as §6

[4] = S. aureus, Methicillin-Susceptible (1,126), at ≦0.008 mg/L
[5] = S. aureus, Methicillin-resistant (372), at ≦0.008 mg/L
[6] = S. aureus, Vancomycin MIC = 2 mg/L (19), at 0.015 mg/L
[7] = S. aureus, Vancomycin MIC = 2 mg/L (19), at 0.03 mg/L
[8] = S. aureus, Vancomycin MIC = 2 mg/L (19), at 0.06 mg/L
[9] = S. aureus, Vancomycin MIC = 2 mg/L (19), at 0.12 mg/L
[10] = Staphylococcus aureus, Table 1, S. aureus, Methicillin-Susceptible (1,126)
[11] = Staphylococcus aureus, Table 1, S. aureus, Methicillin-resistant (372)
[12] = Staphylococcus aureus, read-out: cumulative % inhibited at MIC
[13] = Staphylococcus aureus, Table 2, S. aureus Methicillin-resistant (1,708)
[14] = collection of staphylococcal clinical isolates, regardless of the methicillin susceptibility pattern

CN[C@H](CC(C)C)C(=O)N[C@H]1C(=O)N[C@@H](CC(N)=O)C(=O)N[C@H]2C(=O)N[C@H]3C(=O)N[C@H](C(=O)N[C@H](C(=O)O)c4cc(O)cc(O)c4-c4cc3ccc4O)[C@H](O[C@H]3C[C@](C)(N)[C@@H](O)[C@H](C)O3)c3ccc(c(Cl)c3)Oc3cc2cc(c3O[C@@H]2O[C@H](CO)[C@@H](O)[C@H](O)[C@H]2O[C@H]2C[C@](C)(NCc3ccc(-c4ccc(Cl)cc4)cc3)[C@@H](O)[C@H](C)O2)Oc2ccc(cc2Cl)[C@H]1O [Oritavancin, N-(4-(4-chlorophenyl)benzyl)A82846B]
peaks (oritavancin concentration) ([1]; 1200 mg IV, Q2D x3 then QW x5): 120 to 130 µg/mL
Oritavancin concentration ([1]; Peak - First Dose, 1200 mg IV): 114.793 µg/mL
Oritavancin concentration ([1]; Peak - Third Dose, 1200 mg IV): 133.581 µg/mL
Oritavancin concentration ([1]; Trough - First Dose, 1200 mg IV): 4.272 µg/mL
Oritavancin concentration ([1]; Trough - Second Dose, 1200 mg IV): 7.614 µg/mL
troughs (oritavancin concentration) ([1]; loading phase): 5 to 10 µg/mL
Oritavancin concentration ([1]; trough, fifth dose, 1200 mg IV): 4.584 µg/mL
Oritavancin concentration ([1]; trough, fourth dose, 1200 mg IV): 4.256 µg/mL
Oritavancin concentration ([1]; trough, sixth dose, 1200 mg IV): 4.489 µg/mL
Oritavancin concentration ([1]; trough, third dose, 1200 mg IV): 3.775 µg/mL
accumulation ([1]; weekly dosing phase): no evidence of substantial accumulation
troughs (oritavancin concentration) ([1]; weekly dosing phase): around 5 ug/mL
blood culture ([2]; Feb. 11, 2013 sample, after two 1200 mg IV doses): negative
blood culture ([2]; samples taken Feb. 19, 2013, culture duration is 5 days): so far negative
activity relative to vancomycin or linezolid (S. aureus; MRSA strains, MIC50/90): 16- to 32 fold
potency relative to daptomycin (S. aureus; MRSA strains, MIC50/90): eight-fold
MIC50, MIC90 and modal MIC relative to strains with vancomycin MIC≦1 mg/L (S. aureus; S. aureus isolates with decreased susceptibility to vancomycin (MIC=2 mg/L)): two-fold higher
Number inhibited at MIC (S. aureus; S. aureus, Methicillin-Susceptible (1,126), at 0.015 mg/L): 247
Number inhibited at MIC (S. aureus; S. aureus, Methicillin-Susceptible (1,126), at 0.03 mg/L): 458
Number inhibited at MIC (S. aureus; S. aureus, Methicillin-Susceptible (1,126), at 0.06 mg/L): 297
Number inhibited at MIC (S. aureus; S. aureus, Methicillin-Susceptible (1,126), at 0.12 mg/L): 78
Number inhibited at MIC (S. aureus; S. aureus, Methicillin-Susceptible (1,126), at 0.25 mg/L): 18
Number inhibited at MIC (S. aureus; [4]): 28
cumulative % inhibited at MIC (S. aureus; [4]): 2.5%
Number inhibited at MIC (S. aureus; S. aureus, Methicillin-resistant (372), at 0.015 mg/L): 86
Number inhibited at MIC (S. aureus; S. aureus, Methicillin-resistant (372), at 0.03 mg/L): 180
Number inhibited at MIC (S. aureus; S. aureus, Methicillin-resistant (372), at 0.06 mg/L): 68
Number inhibited at MIC (S. aureus; S. aureus, Methicillin-resistant (372), at 0.12 mg/L): 27
Number inhibited at MIC (S. aureus; S. aureus, Methicillin-resistant (372), at 0.25 mg/L): 6
Number inhibited at MIC (S. aureus; [5]): 5
cumulative % inhibited at MIC (S. aureus; [5]): 1.3%
Number inhibited at MIC (S. aureus; [6]): 1
cumulative % inhibited at MIC (S. aureus; [6]): 5.3%
Number inhibited at MIC (S. aureus; [7]): 3
cumulative % inhibited at MIC (S. aureus; [7]): 21.1%
Number inhibited at MIC (S. aureus; [8]): 11
cumulative % inhibited at MIC (S. aureus; [8]): 78.9%
Number inhibited at MIC (S. aureus; [9]): 3
cumulative % inhibited at MIC (S. aureus; [9]): 94.7%
Number inhibited at MIC (S. aureus; S. aureus, Vancomycin MIC = 2 mg/L (19), at 0.25 mg/L): 1
Number inhibited at MIC (S. aureus; S. aureus, Vancomycin MIC = 2 mg/L (19), at ≦0.008 mg/L): 0
Number inhibited at MIC (S. aureus; S. aureus, Vancomycin MIC ≦1 mg/L (1,479), at 0.12 mg/L): 102
Number inhibited at MIC (S. aureus; S. aureus, Vancomycin MIC ≦1 mg/L (1,479), at 0.25 mg/L): 23
MIC50 (S. aureus; Staphylococcus aureus): 0.03 µg/mL (≈ 0.0167 µM)
MIC90 (S. aureus; Staphylococcus aureus): 0.06 µg/mL (≈ 0.0335 µM)
inhibition at 2 µg/mL (S. aureus; Staphylococcus aureus, S. aureus, Vancomycin MIC = 2 mg/L (19), at ≦0.008 mg/L, read-out: cumulative % inhibited at MIC): 0%
inhibition at 0.12 µg/mL (S. aureus; Staphylococcus aureus, S. aureus, Vancomycin MIC ≦1 mg/L (1,479), at 0.12 mg/L, read-out: cumulative % inhibited at MIC): 98.4%
inhibition at 0.25 µg/mL (S. aureus; Staphylococcus aureus, S. aureus, Vancomycin MIC ≦1 mg/L (1,479), at 0.25 mg/L, read-out: cumulative % inhibited at MIC): 100%
MIC50 (S. aureus; [10]): 0.03 µg/mL (≈ 0.0167 µM)
MIC90 (S. aureus; [10]): 0.06 µg/mL (≈ 0.0335 µM)
MIC50 (S. aureus; [11]): 0.03 µg/mL (≈ 0.0167 µM)
MIC90 (S. aureus; [11]): 0.06 µg/mL (≈ 0.0335 µM)
MIC50 (S. aureus; Staphylococcus aureus, Table 1, S. aureus, Vancomycin MIC = 2 mg/L (19), read-out: MIC 50%): 0.06 µg/mL (≈ 0.0335 µM)
MIC90 (S. aureus; Staphylococcus aureus, Table 1, S. aureus, Vancomycin MIC = 2 mg/L (19), read-out: MIC 90%): 0.12 µg/mL (≈ 0.0669 µM)
inhibition at 0.015 µg/mL (S. aureus; [12]): 24.7%
inhibition at 0.03 µg/mL (S. aureus; [12]): 67.6%
inhibition at 0.06 µg/mL (S. aureus; [12]): 91.5%
inhibition at 0.015 µg/mL (S. aureus; Staphylococcus aureus, read-out: cumulative % inhibited at MIC, S. aureus, Methicillin-Susceptible (1,126), at 0.015 mg/L): 24.4%
inhibition at 0.03 µg/mL (S. aureus; Staphylococcus aureus, read-out: cumulative % inhibited at MIC, S. aureus, Methicillin-Susceptible (1,126), at 0.03 mg/L): 65.1%
inhibition at 0.06 µg/mL (S. aureus; Staphylococcus aureus, read-out: cumulative % inhibited at MIC, S. aureus, Methicillin-Susceptible (1,126), at 0.06 mg/L): 91.5%
inhibition at 0.12 µg/mL (S. aureus; Staphylococcus aureus, read-out: cumulative % inhibited at MIC, S. aureus, Methicillin-Susceptible (1,126), at 0.12 mg/L): 98.4%
inhibition at 0.25 µg/mL (S. aureus; Staphylococcus aureus, read-out: cumulative % inhibited at MIC, S. aureus, Methicillin-Susceptible (1,126), at 0.25 mg/L): 100%
inhibition at 0.015 µg/mL (S. aureus; Staphylococcus aureus, read-out: cumulative % inhibited at MIC, S. aureus, Methicillin-resistant (372), at 0.015 mg/L): 24.5%
inhibition at 0.03 µg/mL (S. aureus; Staphylococcus aureus, read-out: cumulative % inhibited at MIC, S. aureus, Methicillin-resistant (372), at 0.03 mg/L): 72.9%
inhibition at 0.06 µg/mL (S. aureus; Staphylococcus aureus, read-out: cumulative % inhibited at MIC, S. aureus, Methicillin-resistant (372), at 0.06 mg/L): 91.1%
inhibition at 0.12 µg/mL (S. aureus; Staphylococcus aureus, read-out: cumulative % inhibited at MIC, S. aureus, Methicillin-resistant (372), at 0.12 mg/L): 98.4%
inhibition at 0.25 µg/mL (S. aureus; Staphylococcus aureus, read-out: cumulative % inhibited at MIC, S. aureus, Methicillin-resistant (372), at 0.25 mg/L): 100%
MIC50 (S. aureus; [13]): 0.03 µg/mL (≈ 0.0167 µM)
MIC90 (S. aureus; [13]): 0.06 µg/mL (≈ 0.0335 µM)
MIC Range (S. aureus; Table 2, S. aureus Methicillin-resistant (1,708)): ≦0.008-0.25 mg/L
concentration inhibiting all strains ([3]; all staphylococci, including resistant subsets): ≤ 0.25 mg/L
MIC50 [3, 14]: 0.03 µg/mL (≈ 0.0167 µM)
MICE [3, 14]: 0.06 mg/L
effect of methicillin-resistance phenotype on in vitro activity ([3]; staphylococci): not affected
MIC90 (E. faecalis; Blood, N 116): 0.06 µg/mL (≈ 0.0335 µM)
MIC90 (E. faecalis; Non-Blood, N 411): 0.06 µg/mL (≈ 0.0335 µM)
MIC90 (E. faecium; Blood, N 84): 0.12 µg/mL (≈ 0.0669 µM)
MIC90 (E. faecium; Non-Blood, N 92): 0.12 µg/mL (≈ 0.0669 µM)
MIC90 (S. agalactiae; Blood, N 100): 0.25 µg/mL (≈ 0.139 µM)
MIC90 (S. agalactiae; Non-Blood, N 355): 0.25 µg/mL (≈ 0.139 µM)
MIC90 (S. pyogenes; Blood, N 53): 0.25 µg/mL (≈ 0.139 µM)
MIC90 (S. pyogenes; Non-Blood, N 282): 0.25 µg/mL (≈ 0.139 µM)
